Converted amounts (≈) assume the structure as drawn.

Here are results for 2 compounds from ChEMBL document CHEMBL1148851, “Chemoenzymatic synthesis and in vitro studies on the hydrolysis of antimicrobial monoglycosyl diglycerides by pancreatic lipase” (2007).

Type in all cases: functional
Assay [1] relates to Staphylococcus aureus. The assay can be described thus: Antibacterial activity against Staphylococcus aureus SA87 isolate. The note with it: Staphylococcus aureus; read-out: MIC.
For assay [2], the system named is Staphylococcus aureus. In words: Antibacterial activity against Staphylococcus aureus SA85 isolate.
The next assay has as its system Kluyveromyces marxianus. The assay can be described thus: Antifungal activity against Candida pseudotropicalis by dilution method.
Assay [3] deals with Staphylococcus aureus. The assay can be described thus: Antibacterial activity against Staphylococcus aureus SA52 isolate.
The subject of the next assay is Bacillus subtilis. In words: Antibacterial activity against Bacillus subtilis ATCC 6633. The settings on record: Bacillus subtilis, ATCC 6633; read-out: MIC.
The test system of assay [4] is Mycobacterium tuberculosis. In words: Antibacterial activity against Mycobacterium tuberculosis H160 by dilution method. The note with it: Mycobacterium tuberculosis, H160; read-out: MIC.
The test system of assay [5] is Mycobacterium tuberculosis. The assay can be described thus: Antibacterial activity against Mycobacterium tuberculosis H37Rv by dilution method. The note with it: Mycobacterium tuberculosis, H37Rv; read-out: MIC.
Another assay relates to Candida albicans. In words: Antifungal activity against Candida albicans by dilution method.
The test system of assay [6] is Staphylococcus aureus. The assay can be described thus: Antibacterial activity against Staphylococcus aureus ATCC 25923.
Assay [7] concerns Staphylococcus aureus. The assay can be described thus: Antibacterial activity against Staphylococcus aureus ATCC 105487.
In assay [8] the test system is Mycobacterium tuberculosis. The assay can be described thus: Antibacterial activity against Mycobacterium tuberculosis H190 by dilution method.
A further assay has as its system Escherichia coli. In words: Antibacterial activity against Escherichia coli ATCC 25922.
In a further assay the test system is Enterococcus faecalis. The assay can be described thus: Antibacterial activity against Enterococcus faecalis ATCC 29212.
In another assay the test system is Pseudomonas aeruginosa. The assay can be described thus: Antibacterial activity against Pseudomonas aeruginosa ATCC 27753.

What is called MIC is the smallest concentration in the dilution series that meets the test's criterion for growth inhibition. On to `CCCCCCCC/C=C\CCCCCCCC(=O)OCC(CO[C@@H]1O[C@H](CO)[C@@H](O)[C@H](O)[C@H]1O)OC(=O)CCCCCCC/C=C\CCCCCCCC` (stereo partly drawn), for which the minimum inhibitory concentration (MIC) (in the assay on Staphylococcus aureus [1]; in the assay on Staphylococcus aureus [2]; against Kluyveromyces marxianus; in the assay on Staphylococcus aureus [3]; with Bacillus subtilis; in assay [4]) was over 128 µg/mL in each case. The MIC (in [5]; in the assay with Candida albicans; in the assay on Staphylococcus aureus [6]; against Staphylococcus aureus [7]; in assay [8]; in the assay with Escherichia coli) was over 128 µg/mL in each case. Further, the MIC in the assay on Enterococcus faecalis and against Pseudomonas aeruginosa was over 128 µg/mL in each case.

`CC/C=C\C/C=C\C/C=C\CCCCCCCC(=O)OC[C@H](CO[C@@H]1O[C@H](CO)C(O)[C@H](O)[C@H]1O)OC(=O)CCCCCCC/C=C\C/C=C\C/C=C\CC` (single isomer, unassigned): the MIC (in the assay on Staphylococcus aureus [1]; against Staphylococcus aureus [2]; in the assay on Kluyveromyces marxianus; in the assay with Staphylococcus aureus [3]; in the assay on Bacillus subtilis; in assay [4]) was over 128 µg/mL each time. The MIC in assay [5] was over 128 µg/mL; with Candida albicans, over 128 µg/mL; with Staphylococcus aureus [6] it was 128 µg/mL (≈ 165 µM); against Staphylococcus aureus [7] it was over 128 µg/mL; in [8], over 128 µg/mL; against Escherichia coli, over 128 µg/mL. The MIC in the assay on Enterococcus faecalis and with Pseudomonas aeruginosa was over 128 µg/mL each time.
